ChEMBL document CHEMBL1130461, “Polyclonal catalytic antibody for hetero-cycloaddition of hepta-1,3-diene with ethyl glyoxylate an approach to the synthesis of 2-nonulosonic acid analogs” (Bioorg Med Chem Lett, 1997)

Columns and labels:
[1] = Michaelis-Menten constant in polyclonal antibody reactions; assay type: ADME
[2] = Vmax in polyclonal antibody reactions; assay type: ADME

Km [1]: 96 µM
Vmax [2]: 0.98 µM/min
SMILES: C=C/C=C/CCOC(=O)CCC(=O)OCc1ccccc1
